Source: US20090215778A1, “Alpha-substituted Arylmethyl Piperazine Pyrazolo [1,5-alpha]Pyrimidine Amide Derivatives” (priority 2007, published 2009)

Columns and labels:
[1] = target: T1, HIV Env six-helix bundle (6HB) structure (Human immunodeficiency virus type 1 group M subtype B, UniProt P04579); experiment: Six-helix bundle (6HB) assay; type: cell-based, HIV-1 (strain RF)
T1 construct: H9 cells chronically infected with HIV-1 (H9/HIV-1RF); endogenous in cells; host or cells: H9 cells chronically infected with HIV-1 strain RF (Env is made from the virus in the infected cells, not by transfection)
T1 sequence (P04579 32-519): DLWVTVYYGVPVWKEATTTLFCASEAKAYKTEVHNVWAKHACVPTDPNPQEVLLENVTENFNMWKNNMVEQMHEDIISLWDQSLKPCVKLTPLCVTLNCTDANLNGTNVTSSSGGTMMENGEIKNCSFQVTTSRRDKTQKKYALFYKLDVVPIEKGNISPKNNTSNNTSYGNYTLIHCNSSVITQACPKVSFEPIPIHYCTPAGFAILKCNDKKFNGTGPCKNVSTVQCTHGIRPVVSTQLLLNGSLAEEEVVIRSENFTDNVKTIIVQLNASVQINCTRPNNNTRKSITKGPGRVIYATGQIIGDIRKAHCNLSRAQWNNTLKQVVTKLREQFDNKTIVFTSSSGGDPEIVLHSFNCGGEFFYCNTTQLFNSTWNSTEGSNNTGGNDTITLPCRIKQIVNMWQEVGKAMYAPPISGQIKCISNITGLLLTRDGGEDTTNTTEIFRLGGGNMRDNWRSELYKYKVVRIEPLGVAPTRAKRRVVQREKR
T1 sequence (P04579 520-865): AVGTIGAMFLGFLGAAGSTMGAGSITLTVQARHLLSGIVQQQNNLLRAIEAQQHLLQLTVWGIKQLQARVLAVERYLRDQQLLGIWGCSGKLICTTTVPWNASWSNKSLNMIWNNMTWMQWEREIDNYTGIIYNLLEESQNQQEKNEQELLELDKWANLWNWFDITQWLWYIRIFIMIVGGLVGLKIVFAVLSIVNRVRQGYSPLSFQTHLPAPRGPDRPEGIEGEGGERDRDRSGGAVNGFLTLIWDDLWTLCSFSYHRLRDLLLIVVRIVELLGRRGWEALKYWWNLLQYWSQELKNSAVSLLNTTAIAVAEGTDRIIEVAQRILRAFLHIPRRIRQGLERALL
Experimental: 3×10^6H9 cells were incubated with 1 mL of HIV-1 (strain RF) supplemented with 40 μg/mL of DEAE-dextran. Virus and cells were incubated together at 37° C. for 2-4 hours with sporadic shaking to resuspend cells. 10 mL of media (RPMI 1640 containing 10% fetal bovine serum and supplemented with 50 μg/mL gentamicin) was then added and the virus-cell coculture was incubated at 37° C. in a humidified 5% CO2 incubator. 3 days post-infection and every 2-3 days thereafter, the infected H9/HIV-1RF cells were centrifuged, the supernatant was removed, and the cells were resuspended at a density of 0.3×10^6 cells/mL in media (RPMI 1640 containing 10% fetal bovine serum and supplemented with 50 μg/mL gentamicin). Chronically infected H9/HIV-1RF cells were used in experiments starting 12-15 days after infection and up to 40 days post-infection.
This assay determines the effect of compounds on conformational changes in HIV envelope glycoprotein (Env) that are required in order for Env to mediate the fusion of the viral and cellular membranes during virus entry and infection. Specifically, this assay measures the effect of compounds on the formation of the HIV Env six-helix bundle (6HB) structure.
H9 cells chronically infected with HIV-1 (H9/HIV-1RF) were resuspended in Stain/Wash Buffer (1% bovine serum albumin, 0.1% sodium azide in phosphate-buffered saline) and aliquoted at 2.5×10^5 cells per well into 96-well V-bottom plates containing various concentrations of test compounds. Cells and compounds were incubated for 30 minutes at 37° C. Recombinant soluble CD4 (sCD4) was then added to a final concentration of 1 μg/mL. Negative control wells contained no sCD4 and no test compound. Positive control wells contained sCD4 but no test compound. The plate was incubated for 1 hour at 37° C. to allow the sCD4 to bind to HIV Env and induce conformational changes in the Env protein. Antibody that is specific for the HIV Env six-helix bundle conformation was then added (1 μL polyclonal rabbit serum per well), and the plate was incubated for an additional 1 hour at 37° C. to permit antibody binding. The cells were then washed once with Stain/Wash Buffer to remove compound and excess antibody. The cells were resuspended in Stain/Wash Buffer containing PE-labeled anti-rabbit secondary antibody (KPL) at 0.25 μg per well. The cells were incubated for 45 min at 4° C. to permit secondary antibody binding. Fluorescence was detected using a BD FACSArray™ bioanalyzer. Compounds that inhibited Env conformational changes were identified as those that decreased primary antibody binding to the six-helix bundle epitope resulting in a decrease in fluorescence signal.

HIV-1, NL4-3 strain = experiment: Virus infection assay (virus entry and single-cycle infection); type: cell-based; settings: Human immunodeficiency virus 1, NL43, TZM-b1, read-out: Nl4
Experimental: TZM-b1 indicator cells were propagated in Dulbecco's Modified Eagle's Medium (DMEM) containing 10% fetal bovine serum (FBS, heat-inactivated) and supplemented with gentamicin (50 ug/mL).
This assay determines the effects of compounds on virus entry and single-cycle infection of cells. In this assay, virus (HIV-1, NL4-3 strain) is added to indicator cells expressing the CD4 receptor and both the CXCR4 and CCR5 co-receptor. The cells contain both a lac Z and a luciferase reporter gene under control of the viral LTR transcription promoter. The cells and virus are incubated together in the presence of various concentrations of test compounds. Successful infection of the cells by the virus permits activation of the reporter gene by the viral Tat transcription factor. The resulting beta-galactosidase or luciferase activity is quantitated using a chemiluminescent substrate and a luminescent plate reader.
Specifically, one day prior to infection, 1.5×10^4 TZM-b1 indicator cells were added to each well of a 96-well microtiter plate. On the day of the experiment, virus (MOI 0.01) in 50 μL of medium (Dulbecco's Modified Eagle's Medium) supplemented with DEAE-dextran at a final concentration of 80 μg/mL was added to cells along with various concentrations of test compound in 50 μL of Dulbecco's Modified Eagle's Medium. Control wells had virus alone. Following a 4 hr incubation at 37° C., complete media [DMEM supplemented with 10% fetal bovine serum (FBS, heat-inactivated) and gentamicin (50 ug/mL)] was added. One day post-infection the level of virus infection was quantitated by detection of β-galactosidase expression using the Gal-Screen system (Applied Biosystems).

COc1ccc(-c2nc3c(C(=O)N4CCN([C@@H](C)c5ccc(C#N)cc5)C[C@H]4C)cnn3c(C(F)(F)F)c2C)cc1 [benzonitrile, 4-[(1S)-1-[(3R)-4-[[5-(4-methoxyphenyl)-6-methyl-7-(trifluoromethyl)pyrazolo[1,5-α]pyrimidin-3-yl]carbonyl]-3-methyl-1-piperazinyl]ethyl]-]
IC50 [1]: 1.1 to 10 µM
IC50 (HIV-1, NL4-3 strain): < 1 µM

COc1ccc(-c2nc3c(C(=O)N4CCN(C(CO)c5cccc(NC(=O)OC(C)(C)C)c5)C[C@H]4C)cnn3c(C(F)(F)F)c2C)cc1 (stereo partly drawn) [carbamic acid, N-[3-[2-hydroxy-1-[(3R)-4-[[5-(4-methoxyphenyl)-6-methyl-7-(trifluoromethyl)pyrazolo[1,5-α]pyrimidin-3-yl]carbonyl]-3-methyl-1-piperazinyl]ethyl]phenyl]-, 1,1-dimethylethyl ester]
IC50 [1]: 1.1 to 10 µM
IC50 (HIV-1, NL4-3 strain): 1.1 to 10 µM

COc1ccc(-c2nc3c(C(=O)N4CCN([C@@H](C)c5cccc(NC(=O)OC(C)(C)C)c5)C[C@H]4C)cnn3c(C(F)(F)F)c2C)cc1 [carbamic acid, N-[3-[(1S)-1-[(3R)-4-[[5-(4-methoxyphenyl)-6-methyl-7-(trifluoromethyl)pyrazolo[1,5-α]pyrimidin-3-yl]carbonyl]-3-methyl-1-piperazinyl]ethyl]phenyl]-, 1,1-dimethylethyl ester]
IC50 [1]: 1.1 to 10 µM
IC50 (HIV-1, NL4-3 strain): > 10.1 µM

COc1ccc(-c2nc3c(C(=O)N4CCN([C@@H](C)c5ccc(NC(=O)OC(C)(C)C)cc5)C[C@H]4C)cnn3c(C(F)(F)F)c2C)cc1 [carbamic acid, N-[4-[(1S)-1-[(3R)-4-[[5-(4-methoxyphenyl)-6-methyl-7-(trifluoromethyl)pyrazolo[1,5-α]pyrimidin-3-yl]carbonyl]-3-methyl-1-piperazinyl]ethyl]phenyl]-, 1,1-dimethylethyl ester]
IC50 [1]: > 10.1 µM
IC50 (HIV-1, NL4-3 strain): < 1 µM

COc1ccc(-c2nc3c(C(=O)N4CCN(C(CO)c5ccccc5NC(=O)C5CC5)C[C@H]4C)cnn3c(C(F)(F)F)c2C)cc1 (stereo partly drawn) [cyclopropanecarboxamide, N-[2-[2-hydroxy-1-[(3R)-4-[[5-(4-methoxyphenyl)-6-methyl-7-(trifluoromethyl)pyrazolo[1,5-α]pyrimidin-3-yl]carbonyl]-3-methyl-1-piperazinyl]ethyl]phenyl]-]
IC50 [1]: > 10.1 µM
IC50 (HIV-1, NL4-3 strain): > 10.1 µM

COc1ccc(-c2nc3c(C(=O)N4CCN(C(CO)c5cccc(NC(=O)C6CC6)c5)C[C@H]4C)cnn3c(C(F)(F)F)c2C)cc1 (stereo partly drawn) [cyclopropanecarboxamide, N-[3-[2-hydroxy-1-[(3R)-4-[[5-(4-methoxyphenyl)-6-methyl-7-(trifluoromethyl)pyrazolo[1,5-α]pyrimidin-3-yl]carbonyl]-3-methyl-1-piperazinyl]ethyl]phenyl]-]
IC50 [1]: < 1 µM
IC50 (HIV-1, NL4-3 strain): < 1 µM

COc1ccc(-c2nc3c(C(=O)N4CCN([C@@H](CO)c5ccccc5)C[C@H]4C)cnn3c(C(F)(F)F)c2C)cc1 [drawing 184, methanone, [(2R)-4-[(1R)-2-hydroxy-1-phenylethyl]-2-methyl-1-piperazinyl][5-(4-methoxyphenyl)-7-(trifluoromethyl)pyrazolo[1,5-α]pyrimidin-3-yl]-]
IC50 [1]: < 1 µM
IC50 (HIV-1, NL4-3 strain): < 1 µM

COc1ccc(-c2nc3c(C(=O)N4CCN(C(CO)c5cccc(C(C)=O)c5)C[C@H]4C)cnn3c(C(F)(F)F)c2C)cc1 (stereo partly drawn) [ethanone, 1-[3-[2-hydroxy-1-[(3R)-4-[[5-(4-methoxyphenyl)-6-methyl-7-(trifluoromethyl)pyrazolo[1,5-α]pyrimidin-3-yl]carbonyl]-3-methyl-1-piperazinyl]ethyl]phenyl]-]
IC50 [1]: < 1 µM
IC50 (HIV-1, NL4-3 strain): < 1 µM

COc1ccc(-c2nc3c(C(=O)N4CCN(C(CO)c5cc(C(C)=O)ccc5F)C[C@H]4C)cnn3c(C(F)(F)F)c2C)cc1 (stereo partly drawn) [ethanone, 1-[4-fluoro-3-[2-hydroxy-1-[(3R)-4-[[5-(4-methoxyphenyl)-6-methyl-7-(trifluoromethyl)pyrazolo[1,5-α]pyrimidin-3-yl]carbonyl]-3-methyl-1-piperazinyl]ethyl]phenyl]-]
IC50 [1]: < 1 µM
IC50 (HIV-1, NL4-3 strain): < 1 µM

COc1ccc(-c2nc3c(C(=O)N4CCN([C@H](CO)c5ccc(C(C)=O)s5)C[C@H]4C)cnn3c(C(F)(F)F)c2C)cc1 [ethanone, 1-[5-[(1R)-2-hydroxy-1-[(3R)-4-[[5-(4-methoxyphenyl)-6-methyl-7-(trifluoromethyl)pyrazolo[1,5-α]pyrimidin-3-yl]carbonyl]-3-methyl-1-piperazinyl]ethyl]-2-thienyl]-]
IC50 [1]: < 1 µM
IC50 (HIV-1, NL4-3 strain): 1.1 to 10 µM

COc1ccc(-c2nc3c(C(=O)N4CCN([C@@H](CO)c5ccc(C(C)=O)s5)C[C@H]4C)cnn3c(C(F)(F)F)c2C)cc1 [ethanone, 1-[5-[(1S)-2-hydroxy-1-[(3R)-4-[[5-(4-methoxyphenyl)-6-methyl-7-(trifluoromethyl)pyrazolo[1,5-α]pyrimidin-3-yl]carbonyl]-3-methyl-1-piperazinyl]ethyl]-2-thienyl]-]
IC50 [1]: < 1 µM
IC50 (HIV-1, NL4-3 strain): 1.1 to 10 µM

COc1ccc(-c2nc3c(C(=O)N4CCN(C(CNS(C)(=O)=O)c5ccccc5)C[C@H]4C)cnn3c(C(F)(F)F)c2C)cc1 (stereo partly drawn) [methanesulfonamide, N-[2-[(3R)-4-[[5-(4-methoxyphenyl)-6-methyl-7-(trifluoromethyl)pyrazolo[1,5-α]pyrimidin-3-yl]carbonyl]-3-methyl-1-piperazinyl]-2-phenylethyl]-, 2,2,2-trifluoroacetate]
IC50 [1]: < 1 µM
IC50 (HIV-1, NL4-3 strain): < 1 µM

COc1ccc(-c2nc3c(C(=O)N4CCN([C@@H](C)c5cccc(NS(C)(=O)=O)c5)C[C@H]4C)cnn3c(C(F)(F)F)c2C)cc1 [methanesulfonamide, N-[3-[(1S)-1-[(3R)-4-[[5-(4-methoxyphenyl)-6-methyl-7-(trifluoromethyl)pyrazolo[1,5-α]pyrimidin-3-yl]carbonyl]-3-methyl-1-piperazinyl]ethyl]phenyl]-]
IC50 [1]: < 1 µM
IC50 (HIV-1, NL4-3 strain): < 1 µM

COc1ccc(-c2nc3c(C(=O)N4CCN(C(CO)c5ccccc5)CC4)cnn3c(C(F)(F)F)c2C)cc1 (stereo not drawn) [methanone, [4-(2-hydroxy-1-phenylethyl)-1-piperazinyl][5-(4-methoxyphenyl)-6-methyl-7-(trifluoromethyl)pyrazolo[1,5-α]pyrimidin-3-yl]-]
IC50 [1]: < 1 µM
IC50 (HIV-1, NL4-3 strain): < 1 µM

COc1ccc2c(c1)CCc1c-2nc2c(C(=O)N3CCN([C@@H](CO)c4ccccc4)C[C@H]3C)cnn2c1C(F)(F)F [methanone, [5,6-dihydro-3-methoxy-7-(trifluoromethyl)benzo[h]pyrazolo[5,1-b]quinazolin-11-yl][(2R)-4-[(1R)-2-hydroxy-1-phenylethyl]-2-methyl-1-piperazinyl]-]
IC50 [1]: < 1 µM
IC50 (HIV-1, NL4-3 strain): < 1 µM

Cc1c(-c2ccc(C3CC3)cc2)nc2c(C(=O)N3CCN([C@@H](CO)c4ccccc4)C[C@H]3C)cnn2c1C(F)(F)F [methanone, [5-(4-cyclopropylphenyl)-6-methyl-7-(trifluoromethyl)pyrazolo[1,5-α]pyrimidin-3-yl][(2R)-4-[(1R)-2-hydroxy-1-phenylethyl]-2-methyl-1-piperazinyl]-]
IC50 [1]: < 1 µM
IC50 (HIV-1, NL4-3 strain): < 1 µM
